ChEMBL document CHEMBL1201862, “PubChem BioAssay data set” (2004)
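Five compound concentrations were applied to cells in 96-well plates for 48 hours; endpoints were derived by simple linear interpolation of the resulting dose-response curve. At the GI50, growth is halved.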 Activity calls are given as the source filed them. No stated cut-off is given here; in the data, active = GI50 up to about 1.1 µM and inactive = higher.

Key:
Assay in all cases: NCI tumour cell line growth inhibition, 48 h
HOP-18 = system: HOP-18
MOLT-4 = system: MOLT-4
SK-MEL-28 = system: SK-MEL-28
DLD-1 = system: DLD-1
ACHN = system: ACHN
LOX IMVI = system: LOX IMVI
SW-620 = system: SW-620
HT-29 = system: HT-29
OVCAR-4 = system: OVCAR-4
TK-10 = system: TK-10
SK-OV-3 = system: SK-OV-3
NCI-H460 = system: NCI-H460
COLO 205 = system: COLO 205
M19-MEL = system: M19-MEL
OVCAR-3 = system: OVCAR-3
XF498 = system: XF498
CCRF-CEM = system: CCRF-CEM
LXFL 529 = system: LXFL 529
EKVX = system: EKVX
KM12 = system: KM12
HOP-62 = system: HOP-62
RXF 393 = system: RXF 393
SF-539 = system: SF-539
SF-295 = system: SF-295
NCI-H522 = system: NCI-H522
OVCAR-8 = system: OVCAR-8
SR = system: SR
SF-268 = system: SF-268
IGROV-1 = system: IGROV-1
RPMI-8226 = system: RPMI-8226
U-251 = system: U-251
HCT-15 = system: HCT-15
SN12C = system: SN12C
NCI-H226 = system: NCI-H226
SK-MEL-5 = system: SK-MEL-5
SK-MEL-2 = system: SK-MEL-2
A549 = system: A549
K562 = system: K562
OVCAR-5 = system: OVCAR-5
HOP-92 = system: HOP-92
M14 = system: M14
SNB-78 = system: SNB-78
HL-60 = system: HL-60
DMS-114 = system: DMS-114
UACC-62 = system: UACC-62
CAKI-1 = system: CAKI-1
HCT-116 = system: HCT-116
NCI-H23 = system: NCI-H23
SNB-19 = system: SNB-19
786-0 = system: 786-0
A498 = system: A498
SNB-75 = system: SNB-75
HCC 2998 = system: HCC 2998
DMS-273 = system: DMS-273
Malme-3M = system: Malme-3M
KM-20L2 = system: KM-20L2
MCF7 = system: MCF7
UO-31 = system: UO-31
NCI/ADR-RES = system: NCI/ADR-RES
UACC-257 = system: UACC-257

Measured: GI50

CCOC(=O)NC(=O)c1cn(CCN2CCNCC2)c(=O)[nH]c1=O
> 100 µM: HCT-15
inactive: HOP-18 > 100 µM | MOLT-4 > 100 µM | SK-MEL-28 > 100 µM | DLD-1 > 100 µM | ACHN > 100 µM | LOX IMVI > 100 µM | SW-620 > 100 µM | HT-29 > 100 µM | OVCAR-4 > 100 µM | TK-10 > 100 µM | SK-OV-3 > 100 µM | NCI-H460 > 100 µM | COLO 205 > 100 µM | M19-MEL > 100 µM | OVCAR-3 > 100 µM | XF498 > 100 µM | CCRF-CEM > 100 µM | LXFL 529 > 100 µM | EKVX > 100 µM | KM12 > 100 µM | HOP-62 > 100 µM | RXF 393 > 100 µM | SF-539 > 100 µM | SF-295 > 100 µM | NCI-H522 > 100 µM | OVCAR-8 > 100 µM | SR > 100 µM | SF-268 > 100 µM | IGROV-1 > 100 µM | RPMI-8226 > 100 µM | U-251 > 100 µM | SN12C > 100 µM | NCI-H226 > 100 µM | SK-MEL-5 > 100 µM | SK-MEL-2 > 100 µM | A549 > 100 µM | K562 > 100 µM | OVCAR-5 > 100 µM | HOP-92 > 100 µM | M14 > 100 µM | SNB-78 > 100 µM | HL-60 > 100 µM | DMS-114 > 100 µM | UACC-62 > 100 µM | CAKI-1 > 100 µM | HCT-116 > 100 µM | NCI-H23 > 100 µM | SNB-19 > 100 µM | 786-0 > 100 µM

COc1ccc(OC)c(/C=C2\CCc3ccccc3C2=O)c1
inactive: HOP-18 4.85 µM | MOLT-4 2.59 µM | SK-MEL-28 5.12 µM | DLD-1 5.36 µM | ACHN 7.26 µM | LOX IMVI 4.26 µM | A498 2.61 µM | OVCAR-4 6.52 µM | TK-10 5.16 µM | SK-OV-3 2.58 µM | HCC 2998 2 µM | NCI-H460 3.44 µM | COLO 205 3.18 µM | M19-MEL 3.72 µM | OVCAR-3 2.71 µM | XF498 1.24 µM | CCRF-CEM 2.33 µM | LXFL 529 6.05 µM | EKVX 3.2 µM | KM12 3.05 µM | HOP-62 2.47 µM | RXF 393 1.76 µM | SF-539 2.6 µM | SF-295 3.35 µM | NCI-H522 1.77 µM | OVCAR-8 4.16 µM | SF-268 4.84 µM | IGROV-1 11.4 µM | Malme-3M 3.72 µM | RPMI-8226 3.6 µM | U-251 3.3 µM | SN12C 5.48 µM | NCI-H226 3.72 µM | SK-MEL-5 3.17 µM | KM-20L2 2.9 µM | SK-MEL-2 2.93 µM | A549 2.25 µM | OVCAR-5 4.14 µM | HOP-92 1.23 µM | M14 3.59 µM | HL-60 1.68 µM | DMS-114 1.92 µM | UACC-62 1.76 µM | CAKI-1 4.65 µM | HCT-116 6.78 µM | NCI-H23 3.39 µM | SNB-19 5.6 µM | 786-0 3.03 µM
active: SW-620 1.12 µM | HT-29 0.735 µM | SNB-75 1.1 µM | DMS-273 1.12 µM | K562 0.391 µM
3.91 µM: HCT-15

COc1ccc2c3c1O[C@H]1C[C@@H](O)C=C[C@@]31CCN(C)C2 [GALANTAMINE]
> 150 µM: HCT-15
inactive: MCF7 > 36 µM | HOP-18 > 150 µM | UO-31 > 150 µM | MOLT-4 > 150 µM | SK-MEL-28 > 150 µM | DLD-1 50 µM | LOX IMVI > 150 µM | SW-620 > 150 µM | A498 > 150 µM | HT-29 > 150 µM | OVCAR-4 > 150 µM | SNB-75 > 150 µM | SK-OV-3 > 150 µM | HCC 2998 > 150 µM | NCI-H460 > 150 µM | COLO 205 > 150 µM | M19-MEL > 150 µM | OVCAR-3 > 150 µM | XF498 > 150 µM | CCRF-CEM > 150 µM | EKVX > 150 µM | KM12 > 150 µM | HOP-62 > 150 µM | RXF 393 > 150 µM | SF-539 > 18.9 µM | NCI/ADR-RES > 150 µM | SF-295 > 150 µM | NCI-H522 > 150 µM | OVCAR-8 23.8 µM | DMS-273 > 150 µM | SF-268 87.7 µM | IGROV-1 > 150 µM | Malme-3M > 150 µM | RPMI-8226 > 150 µM | U-251 > 150 µM | SN12C > 150 µM | NCI-H226 > 150 µM | SK-MEL-5 > 150 µM | KM-20L2 > 150 µM | SK-MEL-2 > 150 µM | UACC-257 > 150 µM | A549 > 150 µM | K562 > 150 µM | OVCAR-5 > 150 µM | HOP-92 > 150 µM | SNB-78 103 µM | HL-60 141 µM | DMS-114 > 150 µM | UACC-62 > 150 µM | CAKI-1 114 µM | HCT-116 > 150 µM | NCI-H23 > 150 µM | SNB-19 > 150 µM
